Source: patent US10881642B2, “Autophagy enhancer and use thereof” (Industry-Academic Cooperation Foundation, Yonsei University, priority 2016, dated 2021)

Columns and labels:
[1] = test system: HeLa cells; assay: Viability of Hela cells; format: cell-based; conditions: 50-100 μM, 48 hrs
Experimental: FIG. 10 is the result of the experiments using compound of formula 2 (hereinafter referred to as MSL-7) of the present disclosure as an autophagic enhancer. FIG. 10A is the result of immuneblot using the antibodies indicated using Hela cells treated with MSL or MSL-7. FIG. 10B is the result of measuring the viability of Hela cells treated with vehicle control or various concentration of MSL-7 (50-100 μM) for 48 hrs. FIG. 10C is the result of DAPI stained nuclei of TFEB-GFP HeLa cells which were treated with vehicle control or MSL-7 for 4 hrs. The graph indicates the percentage of TFEB translocated into the nuclei. Error bars, S.D. *, P<0.05; **, P<0.01; ***, P<0.001.
Screening of autophagy enhancer. […] Firefly luciferase was determined after mixing 5 μl of lysate with 25 μl of Luciferase Assay Reagent II. Renilla luciferase was then determined after further addition of 20 ul of Stop&Glo Reagent. […] Cytotoxicity was determined by the measurement of LDH release in cell culture media using the LDH kit (Roche), according to the protocol from the manufacturer. […] Imaging and image quantification. […] Formation of acidic vesicular organelles was quantitated by staining the cells with acridine orange (Invitrogen, 5 ug/ml, 10 min). […] Cells or tissues were solubilized in lysis buffer supplemented with protease and phosphatase inhibitors and protein concentration was measured by the Bradford method. […]

[2] = test system: ob/ob mice; assay: In vivo autophagic flux and TFEB-related gene expression in liver
Experimental: FIG. 7A is the result of the experiment in which ob/ob mice were peritoneally injected with 30 mg/kg leupeptin and then after 1 hr, vehicle control or MSL compound were peritoneally administered. Three hours post administration, the liver lysates were prepared and immunoblotted. The numbers above the bands indicates fold changes normalized to beta actin bands. FIG. 7B indicates the concentration of mRNA of TFEB related genes measured by performing RT-PCT using a total RNA isolated from liver sample treated same as above except that Leupeptin was not administered. The values represent mean±S.D of fold changes compared to control mice (vehicle control) obtained from three mice.
Screening of autophagy enhancer. […] Luciferase assay. Firefly and Renilla luciferase assays were conducted using the Dual-Luciferase Reporter Assay System (Promega) according to the manufacturer's recommendation. In brief, cells were lysed in 1× lysis buffer and subjected to a single round of freezing/thawing. Firefly luciferase was determined after mixing 5 μl of lysate with 25 μl of Luciferase Assay Reagent II. Renilla luciferase was then determined after further addition of 20 ul of Stop&Glo Reagent. Cell culture and media and drugs treatment. […] Cytotoxicity was determined by the measurement of LDH release in cell culture media using the LDH kit (Roche), according to the protocol from the manufacturer. […] Imaging and image quantification. […] Formation of acidic vesicular organelles was quantitated by staining the cells with acridine orange (Invitrogen, 5 ug/ml, 10 min). […] Cells or tissues were solubilized in lysis buffer supplemented with protease and phosphatase inhibitors and protein concentration was measured by the Bradford method. Ten to 30 micrograms were loaded on 4-12% Bis-Tris gel (NUPAGE, Invitrogen) or 8-15% SDS-PAGE, transferred to PVDF membranes and analyzed by western blot using the ECL method (Pierce). […] Protein levels were quantified by using ImageJ software analysis. […]

Compound: COc1oc(-c2ccccc2Cl)nc1S(=O)(=O)c1ccccc1 [MSL-7, 2-(2-chlorophenyl)-5-methoxy-4-(phenylsulfonyl) oxazole]
- cellular toxicity [1]: without cellular toxicity

Compound: CSc1oc(-c2ccccc2)nc1S(=O)(=O)c1ccc(F)cc1 [MSL]
- autophagic activity in the liver measured after leupeptin administration ([2]; after 8 weeks of administration): increased
- LC3-I to -II conversion in the liver ([2]; after pretreatment with leupeptin): increased
- expression of TFEB-regulated genes ([2]; liver, compared to controls): significantly higher
